Legend:
Type in all cases: cell-based
S. aureus [1] = test: CBD-mediated membrane vesicle inhibition, release quantified by nanoparticle tracking analysis; conditions: CBD 1 or 5 μM, 1 h
Experimental: (§1) E. coli and S. aureus cultures were maintained by plating on Mueller-Hinton agar plates and weekly sub-culturing was performed according to previously established methods (Iqbal et. al. 2013).
(§2) Before OMV isolation, all bacterial growth medium was pre-treated before use by ultracentrifugation at 75,000 g for 24 h, to ensure minimum contamination with extracellular vesicles (EVs) from the medium.
(§3) For OMV isolation, bacteria were grown in EV-free medium (as described above) for 24 h at 37° C. and 5% CO2, the culture medium collected and centrifuged once at 400 g for 10 min for removal of cells, followed by centrifugation at 4000 g for 1 h at 4° C. to remove cell debris. […]
(§4) Samples were diluted 1:50 in sterile-filtered EV-free DPBS and the number of particles in the field of view was maintained in the range of 20-40 with a minimum concentration of samples at 5×10^7 particles/ml. Camera settings were according to the manufacturer's instructions (Malvern), five 30 sec videos per sample were recorded and replicate histograms averaged. […]
(§5) The experiment was repeated three times and the OMVs were quantified using NTA analysis. Cell viability was assessed after 1 h treatment with CBD compared to controls and before the start of every experiment using viable count.

E. coli [2] = test: CBD-mediated OMV inhibition, OMV release quantified by nanoparticle tracking analysis; conditions: 1 h, vs control
Experimental: as §1, §2, §3, §4, §5

S. aureus [3] = test: Disc diffusion test, antibiotic discs with CBD disc; conditions: antibiotic disc + 5 μM CBD disc vs antibiotic alone, 24 h
Experimental: (§6) Discs were impregnated with the following […]: Colistin (10 μg/ml), Rifampicin (15 μg/ml), Erythromycin (15 μg/ml), Kanamycin (30 μg/ml) and Vancomycin (5 μg/ml).
(§7) Concentration of the antibiotics used was based on previously published and established MIC values (Moskowitz et al., 2010; Rojas et al., 2017; Goldstein et al., 2018; Maclayton et al., 2006, Kshetry et al., 2016).
(§8) E. coli and S. aureus agar plates were prepared for the disc diffusion test by soaking a sterile paper disc in 5 μM CBD and placing it in the middle of the agar plate, while the impregnated antibiotic discs were placed equidistant to the CBD disc. Zone of inhibition was assessed after 24 h.

E. coli [4] = test: as above; conditions: antibiotic disc + 5 μM CBD disc vs antibiotic alone, 24 h
Experimental: as §6, §7, §8

**Q.** Which results are given for `C=C(C)[C@@H]1CCC(C)=C[C@H]1c1c(O)cc(CCCCC)cc1O` [CBD, Cannabidiol]?
**A.** effect on membrane vesicle release (S. aureus [1]): no effect; reduction of total OMV release (E. coli [2]; 1 μM CBD): 73%; reduction of total OMV release (E. coli [2]; 5 μM CBD): 54%

**Q.** Which results are given for `CC[C@H]1OC(=O)[C@H](C)[C@@H](O[C@H]2C[C@@](C)(OC)[C@@H](O)[C@H](C)O2)[C@H](C)[C@@H](O[C@@H]2O[C@H](C)C[C@H](N(C)C)[C@H]2O)[C@](C)(O)C[C@@H](C)C(=O)[C@H](C)[C@@H](O)[C@]1(C)O` [Erythromycin]?
**A.** effect of CBD on antibacterial activity of antibiotic (in words) (S. aureus [3]): reduced antibacterial effects; increase of antibacterial effect (radius of zone of inhibition) when combined with CBD (E. coli [4]): 35%

**Q.** For `NC[C@H]1O[C@H](O[C@H]2[C@H](O)[C@@H](O[C@H]3O[C@H](CO)[C@@H](O)[C@H](N)[C@H]3O)[C@H](N)C[C@@H]2N)[C@H](O)[C@@H](O)[C@@H]1O` [Kanamycin], which “increase of antibiotic activity (radius of zone around diffusion disk) by CBD” value (S. aureus [3]) is on record?
**A.** 30%

**Q.** And the “increase of antibacterial effect (radius of zone of inhibition) when combined with CBD” value (E. coli [4])?
**A.** 18%

**Q.** How did the “increase of antibacterial effect (radius of zone of inhibition) when combined with CBD” value (E. coli [4]) turn out when `CO[C@H]1/C=C/O[C@@]2(C)Oc3c(C)c(O)c4c(O)c(c(/C=N/N5CCN(C)CC5)c(O)c4c3C2=O)NC(=O)/C(C)=C\C=C\[C@H](C)[C@H](O)[C@@H](C)[C@@H](O)[C@@H](C)[C@H](OC(C)=O)[C@@H]1C` [Rifampicin] was run?
**A.** 50%

**Q.** How did the “sensitisation to antibiotic by CBD (in words)” value (E. coli [4]) turn out when `CN[C@H](CC(C)C)C(=O)N[C@H]1C(=O)N[C@@H](CC(N)=O)C(=O)N[C@H]2C(=O)N[C@H]3C(=O)N[C@H](C(=O)N[C@H](C(=O)O)c4cc(O)cc(O)c4-c4cc3ccc4O)[C@H](O)c3ccc(c(Cl)c3)Oc3cc2cc(c3O[C@@H]2O[C@H](CO)[C@@H](O)[C@H](O)[C@H]2O[C@H]2C[C@](C)(N)[C@H](O)[C@H](C)O2)Oc2ccc(cc2Cl)[C@H]1O` [Vancomycin] was run?
**A.** did not increase antibacterial effects

**Q.** Which “sensitisation to antibiotic by CBD (in words)” value (E. coli [4]) does the source give for Colistin [Colisitin] here?
**A.** not

Reference: US20220183997A1, “USE OF C[…] COMBINATION WITH ANTIBIOTICS” (GW Pharma Limited, priority 2019, published 2022)
